The values below come from patent US5686486A, “4-hydroxy-benzopyran-2-ones and 4-hydroxy-cycloalkyl[b]pyran-2-ones useful to treat retroviral infections” (priority 1995, dated 1997).

For test [1], the target named is T1, HIV-1 protease (Human immunodeficiency virus type 1 group M subtype B, UniProt P04585). Kind of test: biochemical. The note with it: for inhibition at 0.123 µM: read-out: HIV-1 Protease % Inhib, dose 0.123 uM; for inhibition at 0.37 µM: read-out: HIV-1 Protease % Inhib, dose 0.370 uM; for inhibition at 1.1 µM: read-out: HIV-1 Protease % Inhib, dose 1.100 uM; for inhibition at 3.3 µM: read-out: HIV-1 Protease % Inhib, dose 3.300 uM; for inhibition at 10 µM: read-out: HIV-1 Protease % Inhib, dose 10.000 uM; for inhibition at 30 µM: read-out: HIV-1 Protease % Inhib, dose 30.000 uM. An outline of the steps: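 Percent inhibition derived from fluorescent cleavage product separated by filtration after streptavidin-bead capture of intact biotin/FITC substrate. Reaction: enzyme (10 μl, 0.1 μM stock) with substrate (20 μl, 0.2 μM stock) and compound, 1 h at room temperature in dark, pH 5.5 acetate buffer with 1.0 M NaCl and 0.05% NP-40.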

For test [2], the target named is T1, HIV-1 protease. Kind of test: biochemical. Particulars: read-out: HIV-1 FITC KI. Put shortly:
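Enzyme (40 nM stock) and substrate (200 μM stock) incubated with inhibitor, 24–48 two-fold serial concentrations, for 90 min at room temperature, then quenched with avidin beads. Nonlinear least-squares analysis gives Ki; a known-Ki inhibitor validates each run.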

By Ki is commonly meant the equilibrium dissociation constant of an inhibitor or competing ligand from its target. For `CCc1ccc(S(=O)(=O)Nc2cccc(C(c3c(O)c4c(oc3=O)CCCCCC4)C3CC3)c2)cc1` (stereo not shown) [Example 341, N-[3-[Cyclopropyl(5,6,7,8,9,10-hexahydro-4-hydroxy-2-oxo-2H-cycloocta[b]pyran-3-yl)methyl]phenyl]-4-ethyl-benzenesulfonamide], in test [1], the inhibition at 0.123 µM is 59.4%, the inhibition at 0.37 µM was 92.8%, the inhibition at 1.1 µM worked out at 110% and the inhibition at 3.3 µM was 107%. For the same compound, in test [1], the inhibition at 10 µM is 120% and the inhibition at 30 µM is 122%. The Ki in test [2] was 5 nM.
In the case of `O=c1oc2c(c(O)c1C(c1ccccc1)C1CC1)CCCCC2C(O)C1CC1` (stereo not shown) [Example 195, 9-(Cyclopropylhydroxymethyl)-3-(cyclopropylphenylmethyl)-6,7,8,9-tetrahydro-4-hydroxy-cyclohepta[b]pyran-2(5H)-one], in test [1], the inhibition at 0.37 µM was 23.5%, the inhibition at 1.1 µM worked out at 71.4%, the inhibition at 3.3 µM amounted to 90.8% and the inhibition at 10 µM was 108%. The inhibition at 30 µM in test [1] was 117%. For the same compound, the Ki in test [2] was found to be 22 nM.
Take `CC(C)(C)OC(=O)NCC(=O)Nc1cccc(C(c2c(O)c3c(oc2=O)CCCCCC3)C2CC2)c1` (stereo not shown) [Example 200, Carbamic acid, [2-[[3-[cyclopropyl(5,6,7,8,9,10-hexahydro-4-hydroxy-2-oxo-2H-cycloocta[b]pyran-3-yl)methyl]phenyl]amino]-2-oxyethyl]-, 1,1-dimethylethyl ester]: in test [1], the inhibition at 0.123 µM is 64.6%, the inhibition at 0.37 µM came to 88.5%, the inhibition at 1.1 µM is 90.9% and the inhibition at 3.3 µM came to 103%. Further, in test [1], the inhibition at 10 µM is 105% and the inhibition at 30 µM is 99.1%. For the same compound, in test [2], the inhibition constant Ki worked out at 2.9 nM.
As to `O=C(NCc1ccc(S(=O)(=O)Nc2cccc(C(c3c(O)c4c(oc3=O)CCCCCC4)C3CC3)c2)s1)c1ccccc1` (stereo not shown) [Example 296, N-[[5-[[[3-[Cyclopropyl(5,6,7,8,9,10-hexahydro-4-hydroxy-2-oxo-2H-cycloocta[b]pyran-3-yl)methyl]phenyl]amino]sulfonyl]-2-thienyl]methyl]-benzamide], in test [1], the inhibition at 0.123 µM was 14.6%, the inhibition at 0.37 µM came out at 74.8%, the inhibition at 1.1 µM worked out at 95.5% and the inhibition at 3.3 µM was determined as 104%. Moreover, in test [1], the inhibition at 10 µM is 108% and the inhibition at 30 µM was found to be 114%. In addition, the Ki in test [2] stood at 24 nM.
Turning to `O=c1oc2c(c(O)c1C(c1cccc(NS(=O)(=O)c3cc(Cl)sc3Cl)c1)C1CC1)CCCCCC2` (stereo not shown) [Example 304, 2,5-Dichloro-N-[3-[cyclopropyl(5,6,7,8,9,10-hexahydro-4-hydroxy-2-oxo-2H-cycloocta[b]pyran-3-yl)methyl]phenyl]-3-thiophenesulfonamide], in test [1], the inhibition at 0.123 µM worked out at 25.7%, the inhibition at 0.37 µM was 60.2%, the inhibition at 1.1 µM came out at 85.9% and the inhibition at 3.3 µM was 97.8%. In test [1], the inhibition at 10 µM turned out to be 104% and the inhibition at 30 µM turned out to be 95.6%. In addition, the inhibition constant (Ki) in test [2] worked out at 27.9 nM.
In the case of `CCCC(c1ccccc1)c1c(O)c2c(oc1=O)CCCCCC2` (stereo not shown) [Example 369, 5,6,7,8,9,10-Hexahydro-4-hydroxy-3-(1-phenylbutyl)-2H-cycloocta[b]pyran-2-one], in test [1], the inhibition at 0.123 µM came out at 54.9%, the inhibition at 0.37 µM was determined as 83.5%, the inhibition at 1.1 µM was 96% and the inhibition at 3.3 µM came to 97.1%. For the same compound, in test [1], the inhibition at 10 µM amounted to 111% and the inhibition at 30 µM came to 93.9%. Moreover, the Ki in test [2] came out at 28.5 nM.
`O=c1oc2c(c(O)c1C(c1cccc(NS(=O)(=O)c3cc(Cl)cc(Cl)c3O)c1)C1CC1)CCCCCC2` (stereo not shown) [Example 284]: in test [1], the inhibition at 0.123 µM is 37.5%, the inhibition at 0.37 µM was 77%, the inhibition at 1.1 µM is 99.8% and the inhibition at 3.3 µM worked out at 107%. Also, in test [1], the inhibition at 10 µM is 107% and the inhibition at 30 µM came out at 104%. Also, the Ki in test [2] came out at 12.2 nM.
As for `O=C(CO)Nc1cccc(S(=O)(=O)Nc2cccc(C(c3c(O)c4c(oc3=O)CCCCCC4)C3CC3)c2)c1` (stereo not shown) [Example 409, 3-(Hydroxyacetylamino)-N-[3-[cyclopropyl(5,6,7,8,9,10-hexahydro4-hydroxy-2-oxo-2H-cycloocta[b]pyran-3-yl)methyl]phenyl]-benzenesulfonamide], in test [1], the inhibition at 0.123 µM is 65.1%, the inhibition at 0.37 µM worked out at 90.5%, the inhibition at 1.1 µM was 102% and the inhibition at 3.3 µM was 103%. In addition, in test [1], the inhibition at 10 µM was 101% and the inhibition at 30 µM worked out at 108%. The Ki in test [2] is 3.3 nM.
`CCCC(c1cccc(NS(=O)(=O)c2cccnc2)c1)c1c(O)c2c(oc1=O)CCCCCC2` (stereo not shown) [Example 433, 3-Pyridinesulfonamide, N-[3-[1-(5,6,7,8,9,10-hexahydro-4-hydroxy-2-oxo-2H-cycloocta[b]pyran-3-yl)butyl]phenyl]-]: in test [1], the inhibition at 0.123 µM worked out at 103%, the inhibition at 0.37 µM worked out at 109%, the inhibition at 1.1 µM stood at 104% and the inhibition at 3.3 µM was determined as 104%. Moreover, in test [1], the inhibition at 10 µM is 109% and the inhibition at 30 µM turned out to be 108%. Besides, in test [2], the Ki came out at 2.24 nM.
`CC(C)CC(c1cccc(NS(=O)(=O)c2cn(C)cn2)c1)c1c(O)c2c(oc1=O)CCCCCC2` (stereo not shown) [Example 427, 1H-Imidazole-4-sulfonamide, N-[3-[1-(5,6,7,8,9,10-hexahydro-4-hydroxy-2-oxo-2H-cycloocta[b]pyran-3-yl)-3-methylbutyl]phenyl]-1-methyl-]: in test [1], the inhibition at 0.123 µM is 94.2%, the inhibition at 0.37 µM was determined as 92.8%, the inhibition at 1.1 µM was 91.2% and the inhibition at 3.3 µM was 90%. Further, in test [1], the inhibition at 10 µM came to 89.6% and the inhibition at 30 µM turned out to be 81.9%. Further, the Ki in test [2] was 0.65 nM.
“N-[3-[Cyclopropyl(5,6,7,8,9,10-hexahydro-4-hydroxy-2-oxo-2H-cycloocta[b]pyran-3-yl)-methyl]phenyl]-(3-N-ethylbenzenesulfonyl)benzenesulfonamide [Example 414]”: the “HIV-1 Protease % Inhib” value is 62.73% in test [1] (dose 0.123 uM); 85.78% in test [1] (dose 0.370 uM); 103.16% in test [1] (dose 1.100 uM); 105.93% in test [1] (dose 3.300 uM); 104.38% in test [1] (dose 10.000 uM); 109.61% in test [1] (dose 30.000 uM). The Ki in test [2] came to 3.5 nM.
With `O=C(Nc1cccc(C(c2c(O)c3c(oc2=O)CCCCCC3)C2CC2)c1)OCc1ccccc1` (stereo not shown) [Example 119, Carbamic acid, [3-[cyclopropyl(5,6,7,8,9,10-hexahydro-4-hydroxy-2-oxo-2H-cycloocta[b]pyran-3-yl)methyl]phenyl]-, phenylmethyl ester], the inhibition at 0.41 µM in test [1] (read-out: HIV-1 Protease % Inhib, dose 0.410 uM) amounted to 27.5%. For the same compound, the inhibition at 1.23 µM in test [1] (read-out: HIV-1 Protease % Inhib, dose 1.230 uM) was determined as 55.4%. The inhibition at 3.7 µM in test [1] (read-out: HIV-1 Protease % Inhib, dose 3.700 uM) amounted to 82.5%. Further, the inhibition at 11 µM in test [1] (read-out: HIV-1 Protease % Inhib, dose 11.000 uM) is 97.7%. Also, in test [1] (read-out: HIV-1 Protease % Inhib, dose 33.000 uM), the inhibition at 33 µM amounted to 96.8%. For the same compound, in test [1] (read-out: HIV-1 Protease % Inhib, dose 100.000 uM), the inhibition at 100 µM is 101%. In addition, in test [2], the Ki turned out to be 257 nM.
Turning to `CN1CCN(S(=O)(=O)Nc2cccc(C(c3c(O)c4c(oc3=O)CCCCCC4)C3CC3)c2)CC1` (stereo not shown) [Example 399, N-[3-[Cyclopropyl(5,6,7,8,9,10-hexahydro-4-hydroxy-2-oxo-2H-cycloocta[b]pyran-3-yl)methyl]phenyl]4-methyl-1-piperazinesulfonamide], in test [1], the inhibition at 0.37 µM stood at 21.6% and the inhibition at 1.1 µM turned out to be 54.1%. In addition, the Ki in test [2] was found to be 186 nM.
Consider `O=c1oc2c(c(O)c1C(c1cccc(NS(=O)(=O)c3ccc(-c4ccon4)s3)c1)C1CC1)CCCCCC2` (stereo not shown) [Example 347, N-[3-[Cyclopropyl(5,6,7,8,9,10-hexahyro-4-hydroxy-2-oxo-2H-cycloocta[b]pyran-3-yl)methyl]phenyl]-5-(3-isoxazolyl)-2-thiophenesulfonamide], for which, in test [1], the inhibition at 0.123 µM amounted to 79.8%, the inhibition at 0.37 µM was 92.2%, the inhibition at 1.1 µM came to 103% and the inhibition at 3.3 µM was determined as 100%. In addition, in test [1], the inhibition at 10 µM came to 102% and the inhibition at 30 µM came out at 103%. Moreover, the Ki in test [2] was determined as 2.5 nM.
In the case of `O=c1oc2c(c(O)c1C(c1cccc(NS(=O)(=O)c3cccc(S(=O)(=O)NCc4ccccc4)c3)c1)C1CC1)CCCCCC2` (stereo not shown) [Example 412, N-[3-[Cyclopropyl(5,6,7,8,9,10-hexahydro-4-hydroxy-2-oxo-2H-cycloocta[b]pyran-3-yl)-methyl]phenyl]-(3-N-benzylbenzenesulfonyl)benzenesulfonamide], in test [1], the inhibition at 0.123 µM amounted to 37.8%, the inhibition at 0.37 µM is 69.2%, the inhibition at 1.1 µM was 92% and the inhibition at 3.3 µM was determined as 102%. In addition, in test [1], the inhibition at 10 µM was determined as 99% and the inhibition at 30 µM came out at 102%. Besides, the Ki in test [2] is 9.2 nM.
